# Measurements from US6861217B1, “Variation in drug response related to polymorphisms in the β2-adrenergic receptor” (Genaissance Pharmaceuticals, Inc., priority 1998, dated 2005).
# Test system: patients with asthma
# Experiment: bronchodilating response (FEF25-75) to albuterol in patients with asthma by 5′LC genotype
# Assay type: in vivo, human
# Settings: for patients exhibiting a bronchodilating response (increase in FEF25-75 greater than 12%): 180 micrograms aerosolized, 30 minutes
# Source text: For this study, 134 patients with asthma were enrolled to determine whether either of the polymorphisms at nucleic acid −47 in the β2AR gene alter the bronchodilating response to β-agonist. The percent (%) change in the forced expiratory flow between 25% and 75% of the forced vital capacity (FEF25-75) was used as a measure of responsiveness. Patients underwent pulmonary function testing to measure FEF25-75 and then received 2 puffs (total of 180 micrograms) of aerosolized albuterol by metered dose inhaler. Thirty minutes later the FEF25-75 measurement was repeated. Based on accepted national standards, an increase in FEF25-75 of greater than 12% was considered a response, while 12% or less was considered no response.
smiles,measurement,setting,value
CC(C)(C)NCC(O)c1ccc(O)c(CO)c1 (stereo not drawn) [albuterol],patients exhibiting a bronchodilating response (increase in FEF25-75 greater than 12%),TT genotype at the 5′LC PS,28.8%
same,odds ratio for having no response,TT genotype versus TC or CC,2.47
same,patients exhibiting a bronchodilating response (increase in FEF25-75 greater than 12%),without TT genotype (TC or CC),71.1%
